From ChEMBL document CHEMBL5260802, “Discovery of Novel Allosteric HCV NS5B Inhibitors. 2. Lactam-Containing Thiophene Carboxylates” (ACS Med Chem Lett, 2017)

Legend:
[1] = AUC (0 to infinity) in Sprague-Dawley rat at 3 mg/kg,po and measured after 72 hrs by LC/MS/MS analysis; assay type: ADME, organism-based; design: time 72 hrs, dose 3 mg/kg, route po; conditions: in vivo
[2] = Clearance in Sinclair Lab dog at 1 mg/kg,iv and measured after 72 hrs by LC/MS/MS analysis; assay type: ADME, organism-based, Canis lupus familiaris; conditions: in vivo
[3] = Drug distribution in Sprague-Dawley rat plasma at 10 mg/kg,po and measured upto 24 hrs by LC/MS/MS analysis; assay type: ADME, organism-based; conditions: in vivo
Cytochrome P450 3A4 = Cytochrome P450 3A4 (Homo sapiens, UniProt P08684); assay: Inhibition of CYP3A4 in human liver microsomes incubated for 10 mins in presence of NADPH by LC/MS/MS analysis; assay type: ADME, Microsome
Chain of Cytochrome P450 3A4 (P08684 whole entry): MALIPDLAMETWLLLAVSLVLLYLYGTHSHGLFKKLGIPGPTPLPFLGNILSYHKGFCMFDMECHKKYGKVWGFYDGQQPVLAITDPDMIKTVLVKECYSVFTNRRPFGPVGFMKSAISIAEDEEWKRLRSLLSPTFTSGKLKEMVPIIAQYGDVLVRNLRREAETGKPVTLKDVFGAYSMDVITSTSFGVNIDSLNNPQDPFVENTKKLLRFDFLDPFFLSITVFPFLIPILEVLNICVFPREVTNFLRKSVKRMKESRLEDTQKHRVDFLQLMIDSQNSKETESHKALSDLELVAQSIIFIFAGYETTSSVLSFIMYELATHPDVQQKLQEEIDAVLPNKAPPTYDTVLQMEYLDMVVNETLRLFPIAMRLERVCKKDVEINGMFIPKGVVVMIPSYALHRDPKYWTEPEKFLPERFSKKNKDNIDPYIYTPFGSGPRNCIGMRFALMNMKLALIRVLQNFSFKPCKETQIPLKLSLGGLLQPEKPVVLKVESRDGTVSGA

[4] = Volume of distribution at steady state in Sprague-Dawley rat at 1 mg/kg,iv and measured after 72 hrs by LC/MS/MS analysis; assay type: ADME, organism-based; conditions: in vivo, read-out: Vdss
[5] = Half life in Sprague-Dawley rat at 1 mg/kg,iv and measured after 72 hrs by LC/MS/MS analysis; assay type: ADME, organism-based; conditions: in vivo
[6] = Drug uptake in human hepatocytes at 4 degree C for 15 mins by LC/MS/MS analysis; assay type: ADME, cell-based, Hepatocyte; conditions: 0.25 h
Hepatitis C virus [7] = assay: Antiviral activity against Hepatitis C virus subtype 1b infected in Huh-7 cells transfected with HCV subgenomic replicon for NS5B polymerase assessed as inhibition of viral replication measured upto 96 hrs by luciferase reporter gene assay; assay type: functional, organism-based, Hepacivirus hominis
[8] = Protein binding in rat plasma at 1 uM incubated for 6 hrs by LC-MS/MS based rapid equilibrium dialysis method; assay type: ADME, cell-free; conditions: read-out: PPB (converted)
[9] = Volume of distribution at steady state in Cynomolgus monkey at 1 mg/kg,iv and measured after 72 hrs by LC/MS/MS analysis; assay type: ADME, organism-based, Macaca fascicularis; conditions: in vivo, read-out: Vdss
[10] = Half life in Sinclair Lab dog at 1 mg/kg,iv and measured after 72 hrs by LC/MS/MS analysis; assay type: ADME, organism-based, Canis lupus familiaris; conditions: in vivo
Cytochrome P450 2C9 = Cytochrome P450 2C9 (Homo sapiens, UniProt P11712); assay: Inhibition of CYP2C9 in human liver microsomes incubated for 10 mins in presence of NADPH by LC/MS/MS analysis; assay type: ADME, Microsome
Chain of Cytochrome P450 2C9 (P11712 whole entry): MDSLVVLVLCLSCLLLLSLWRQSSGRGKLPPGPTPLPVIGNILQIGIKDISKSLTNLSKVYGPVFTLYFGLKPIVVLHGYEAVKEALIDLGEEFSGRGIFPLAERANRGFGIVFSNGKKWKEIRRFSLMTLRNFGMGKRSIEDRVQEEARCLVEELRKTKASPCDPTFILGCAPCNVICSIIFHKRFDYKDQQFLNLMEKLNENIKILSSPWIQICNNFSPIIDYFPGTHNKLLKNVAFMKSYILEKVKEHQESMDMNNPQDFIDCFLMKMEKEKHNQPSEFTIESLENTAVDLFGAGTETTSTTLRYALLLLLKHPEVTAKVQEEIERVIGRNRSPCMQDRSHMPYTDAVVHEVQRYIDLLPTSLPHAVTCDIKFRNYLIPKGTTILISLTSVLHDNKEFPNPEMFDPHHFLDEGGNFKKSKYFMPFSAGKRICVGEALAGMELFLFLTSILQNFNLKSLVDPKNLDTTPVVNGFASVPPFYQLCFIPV

[11] = Microsomal stability in rat liver microsomes assessed as parent compound remaining at 1 uM and measured after 30 mins in presence of NADPH by LC/MS/MS analysis; assay type: ADME, Microsome; conditions: 0.5 h
[12] = Cytotoxicity against human Huh-7 cells transfected with HCV subgenomic replicon for NS5B polymerase assessed as reduction in cell viability; assay type: toxicity, cell-based
[13] = Clearance in Cynomolgus monkey at 1 mg/kg,iv and measured after 72 hrs by LC/MS/MS analysis; assay type: ADME, organism-based, Macaca fascicularis; conditions: in vivo
[14] = Microsomal stability in human liver microsomes assessed as parent compound remaining at 1 uM and measured after 30 mins in presence of NADPH by LC/MS/MS analysis; assay type: ADME, Microsome; conditions: 0.5 h
[15] = AUC (0 to infinity) in Sinclair Lab dog at 1 mg/kg,iv and measured after 72 hrs by LC/MS/MS analysis; assay type: ADME, organism-based, Canis lupus familiaris; design: time 72 hrs, dose 1 mg/kg, route iv; conditions: in vivo
[16] = Cmax in Sprague-Dawley rat at 3 mg/kg,po and measured after 72 hrs by LC/MS/MS analysis; assay type: ADME, organism-based; design: time 72 hrs, dose 3 mg/kg, route po; conditions: in vivo
[17] = Volume of distribution at steady state in Sinclair Lab dog at 1 mg/kg,iv and measured after 72 hrs by LC/MS/MS analysis; assay type: ADME, organism-based, Canis lupus familiaris; conditions: in vivo, read-out: Vdss
[18] = Oral bioavailability in Sprague-Dawley rat at 3 mg/kg and measured after 72 hrs by LC/MS/MS analysis; assay type: ADME, organism-based; conditions: in vivo
[19] = AUC (0 to infinity) in Sprague-Dawley rat at 1 mg/kg,iv and measured after 72 hrs by LC/MS/MS analysis; assay type: ADME, organism-based; design: time 72 hrs, dose 1 mg/kg, route iv; conditions: Sprague-Dawley, in vivo
[20] = Half life in Cynomolgus monkey at 1 mg/kg,iv and measured after 72 hrs by LC/MS/MS analysis; assay type: ADME, organism-based, Macaca fascicularis; conditions: in vivo
[21] = Drug distribution in Sprague-Dawley rat liver at 10 mg/kg,po and measured upto 24 hrs by LC/MS/MS analysis; assay type: ADME, organism-based; conditions: in vivo
[22] = Unbound clearance in Cynomolgus monkey at 1 mg/kg,iv and measured after 72 hrs by LC/MS/MS analysis; assay type: ADME, organism-based, Macaca fascicularis; conditions: in vivo
Cytochrome P450 2D6 = Cytochrome P450 2D6 (Homo sapiens, UniProt P10635); assay: Inhibition of CYP2D6 in human liver microsomes incubated for 10 mins in presence of NADPH by LC/MS/MS analysis; assay type: ADME, Microsome
Chain of Cytochrome P450 2D6 (P10635 whole entry): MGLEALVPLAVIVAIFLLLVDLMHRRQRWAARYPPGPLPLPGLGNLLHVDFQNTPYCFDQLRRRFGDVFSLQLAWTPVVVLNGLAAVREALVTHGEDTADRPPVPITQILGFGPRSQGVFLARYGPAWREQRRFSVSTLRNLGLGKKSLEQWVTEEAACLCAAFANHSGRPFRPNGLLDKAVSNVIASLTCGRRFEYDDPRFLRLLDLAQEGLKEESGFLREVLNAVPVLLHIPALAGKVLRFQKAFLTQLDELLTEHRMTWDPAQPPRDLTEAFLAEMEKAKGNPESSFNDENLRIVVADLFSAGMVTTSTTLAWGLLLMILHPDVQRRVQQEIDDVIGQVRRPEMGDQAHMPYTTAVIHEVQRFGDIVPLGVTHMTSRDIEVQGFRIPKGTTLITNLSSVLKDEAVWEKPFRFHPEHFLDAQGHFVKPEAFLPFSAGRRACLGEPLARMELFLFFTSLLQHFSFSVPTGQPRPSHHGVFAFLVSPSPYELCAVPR

[23] = Unbound AUC (0 to infinity) in Cynomolgus monkey at 1 mg/kg,iv and measured after 72 hrs by LC/MS/MS analysis; assay type: ADME, organism-based, Macaca fascicularis; conditions: in vivo
Hepatitis C virus [24] = assay: Antiviral activity against Hepatitis C virus subtype 1b infected in Huh-7 cells transfected with HCV subgenomic replicon for NS5B polymerase assessed as inhibition of viral replication measured upto 96 hrs in presence of 40% of human serum by luciferase reporter gene assay; assay type: functional, organism-based, Hepacivirus hominis; conditions: Huh-7, 96 h
[25] = target: T1, Nuclear receptor subfamily 1 group I member 2 (Homo sapiens, UniProt O75469); assay: Activation of human PXR expressed in human DPX2 co-expressing luciferase reporter gene incubated for 24 hrs by luciferase assay; assay type: cell-based
T1 sequence (O75469 whole entry): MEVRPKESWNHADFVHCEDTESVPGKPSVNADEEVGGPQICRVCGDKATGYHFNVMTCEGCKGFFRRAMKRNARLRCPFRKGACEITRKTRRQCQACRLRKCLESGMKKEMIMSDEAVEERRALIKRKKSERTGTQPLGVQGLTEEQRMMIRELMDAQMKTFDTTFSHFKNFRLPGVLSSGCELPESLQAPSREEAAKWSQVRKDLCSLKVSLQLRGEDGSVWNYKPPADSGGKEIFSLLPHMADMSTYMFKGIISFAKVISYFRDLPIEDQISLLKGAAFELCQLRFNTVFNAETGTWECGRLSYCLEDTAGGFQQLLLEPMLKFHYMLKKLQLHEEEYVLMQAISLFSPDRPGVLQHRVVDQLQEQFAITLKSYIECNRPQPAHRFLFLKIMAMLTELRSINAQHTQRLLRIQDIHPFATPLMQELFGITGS

[26] = AUC (0 to infinity) in Cynomolgus monkey at 1 mg/kg,iv and measured after 72 hrs by LC/MS/MS analysis; assay type: ADME, organism-based, Macaca fascicularis; design: dose 1 mg/kg, time 72 hrs, route iv; conditions: in vivo
[27] = Drug excretion in bile-duct cannulated Sprague-Dawley rat assessed as bile elimination at 15 mg/kg,po and measured after 72 hrs by LC/MS/MS analysis; assay type: ADME, organism-based; conditions: in vivo
[28] = Clearance in Sprague-Dawley rat at 1 mg/kg,iv and measured after 72 hrs by LC/MS/MS analysis; assay type: ADME, organism-based; conditions: in vivo
[29] = Unbound AUC (0 to infinity) in Sprague-Dawley rat at 3 mg/kg,po and measured after 72 hrs by LC/MS/MS analysis; assay type: ADME, organism-based; conditions: in vivo
[30] = Unbound clearance in Sprague-Dawley rat at 1 mg/kg,iv and measured after 72 hrs by LC/MS/MS analysis; assay type: ADME, organism-based; conditions: in vivo
[31] = Unbound clearance in Sinclair Lab dog at 1 mg/kg,iv and measured after 72 hrs by LC/MS/MS analysis; assay type: ADME, organism-based, Canis lupus familiaris; conditions: in vivo
[32] = Drug uptake in human hepatocytes at 37 degree C for 15 mins by LC/MS/MS analysis; assay type: ADME, cell-based, Hepatocyte; conditions: 0.25 h
[33] = Unbound AUC (0 to infinity) in Sprague-Dawley rat at 1 mg/kg,iv and measured after 72 hrs by LC/MS/MS analysis; assay type: ADME, organism-based; conditions: in vivo
[34] = Unbound AUC (0 to infinity) in Sinclair Lab dog at 1 mg/kg,iv and measured after 72 hrs by LC/MS/MS analysis; assay type: ADME, organism-based, Canis lupus familiaris; conditions: in vivo
[35] = Half life in Sprague-Dawley rat at 3 mg/kg,po and measured after 72 hrs by LC/MS/MS analysis; assay type: ADME, organism-based; conditions: in vivo
PXR = target: T2, PXR (Homo sapiens, UniProt O75469); assay: Activation of human PXR expressed in human DPX2 co-expressing luciferase reporter gene assessed as maximum efficacy incubated for 24 hrs by luciferase assay relative to control; assay type: cell-based; conditions: DPX2 cells expressing human PXR and luciferase reporter gene
T2 sequence (O75469 whole entry): T1 sequence (O75469 whole entry)

- AUC(0-inf) [1]: 3820 ng·h/mL
- clearance [2]: 15 mL/min/kg
- Drug uptake [3]: Active
- IC50 (Cytochrome P450 3A4): > 30000 nM
- Vd [4]: 1.95 L/kg
- half-life [5]: 2.12 h
- Drug uptake [6]: Active
- IC50 (Hepatitis C virus [7]; Huh-7, 96 h): 4 nM
- IC90 (Hepatitis C virus [7]; Huh-7, time <= 96 hrs): 12 nM
- fraction unbound at 6 h, 1 µM [8]: 0.008
- Vd [9]: 5.27 L/kg
- half-life [10]: 1.39 h
- IC50 (Cytochrome P450 2C9): > 30000 nM
- Stability [11]: Stable
- clearance [13]: 33.5 mL/min/kg
- Stability [14]: Stable
- AUC(0-inf) [15]: 1450 ng·h/mL
- Cmax [16]: 1040 ng/mL
- Vd [17]: 1.59 L/kg
- bioavailability [18]: 97%
- AUC(0-inf) [19]: 1480 ng·h/mL
- half-life [20]: 5.44 h
- Drug uptake [21]: Active
- CL free [22]: 3350 mL/min/kg
- IC50 (Cytochrome P450 2D6): > 30000 nM
- fAUC [23]: 4.43 ng·h/mL
- IC50 (Hepatitis C virus [24]): 23 nM
- EC50 [25]: > 30000 nM
- AUC(0-inf) [26]: 443 ng·h/mL
- Drug excretion [27]: Active
- clearance [28]: 16.1 mL/min/kg
- fAUC [29]: 30.6 ng·h/mL
- CL free [30]: 2010 mL/min/kg
- CL free [31]: 2140 mL/min/kg
- Drug uptake [32]: Active
- fAUC [33]: 11.8 ng·h/mL
- fAUC [34]: 10.1 ng·h/mL
- half-life [35]: 2.91 h
- Emax at 24 h (PXR): 10%
SMILES: CN1CCCC[C@H](N(c2cc(C#CC(C)(C)C)sc2C(=O)O)C(=O)[C@H]2CC[C@H](C)CC2)C1=O
- CC50 [12]: > 20000 nM
